Source: patent publication US20250110152A1, “METHOD FOR CHARACTERIZING INTERACTION FORCE BETWEEN LIGNIN AND CELLULASE” (NANJING FORESTRY UNIVERSITY, priority 2022, published 2025)

Tested on: cellulase
Assay: AFM test of lignin-cellulase interaction force and dissociation rate in liquid phase environment (cellulase-modified AFM probe, lignin film)
Details: for interaction force between lignin / lignin model substance and cellulase: AFM force-displacement curves, liquid phase; for Feq: system lignin (model substance)-cellulase

COc1cc(C(O)C(CO)Oc2ccccc2OC)ccc1O (stereo not shown) [GG]
interaction force between lignin / lignin model substance and cellulase: 2.59 nN | most likely dissociation force (loading rate 5 pN/s): 1.65 nN | most likely dissociation force (loading rate 10 pN/s): 1.92 nN | most likely dissociation force (loading rate 15 pN/s): 2.27 nN | most likely dissociation force (loading rate 20 pN/s): 2.46 nN | most likely dissociation force (loading rate 24.24 pN/s): 2.59 nN | Feq: 2.59 nN

COc1ccccc1O [GA]
interaction force between lignin / lignin model substance and cellulase: 0.58 nN | most likely dissociation force (loading rate 3 pN/s): 0.39 nN | most likely dissociation force (loading rate 4 pN/s): 0.41 nN | most likely dissociation force (loading rate 6.61 pN/s): 0.58 nN | most likely dissociation force (loading rate 9 pN/s): 0.63 nN | most likely dissociation force (loading rate 10 pN/s): 0.88 nN | Feq: 0.58 nN

COc1cc(/C=C/CO)cc(OC)c1O [S—OH]
interaction force between lignin / lignin model substance and cellulase: 4.31 nN | most likely dissociation force (loading rate 1 pN/s): 2.66 nN | most likely dissociation force (loading rate 3 pN/s): 3.99 nN | most likely dissociation force (loading rate 5.79 pN/s): 4.31 nN | most likely dissociation force (loading rate 10 pN/s): 4.58 nN | most likely dissociation force (loading rate 18 pN/s): 6.58 nN | Feq: 4.31 nN

COc1cccc(OC)c1O [S]
interaction force between lignin / lignin model substance and cellulase: 4.76 nN | most likely dissociation force (loading rate 3 pN/s): 3.02 nN | most likely dissociation force (loading rate 5 pN/s): 4.05 nN | most likely dissociation force (loading rate 7.89 pN/s): 4.76 nN | most likely dissociation force (loading rate 12 pN/s): 5.21 nN | most likely dissociation force (loading rate 20 pN/s): 8.54 nN | Feq: 4.76 nN

O=C(O)/C=C/c1ccc(O)cc1 [H]
interaction force between lignin / lignin model substance and cellulase: 12.52 nN | most likely dissociation force (loading rate 5 pN/s): 5.00 nN | most likely dissociation force (loading rate 7 pN/s): 5.49 nN | most likely dissociation force (loading rate 10 pN/s): 10.04 nN | most likely dissociation force (loading rate 15 pN/s): 11.29 nN | most likely dissociation force (loading rate 20 pN/s): 12.52 nN | Feq: 12.52 nN

COc1ccccc1OC(CO)C(O)c1cc(OC)c(O)c(OC)c1 (stereo not shown) [SG]
interaction force between lignin / lignin model substance and cellulase: 11.69 nN | most likely dissociation force (loading rate 10 pN/s): 7.65 nN | most likely dissociation force (loading rate 13 pN/s): 8.25 nN | most likely dissociation force (loading rate 15 pN/s): 8.80 nN | most likely dissociation force (loading rate 18.64 pN/s): 11.69 nN | most likely dissociation force (loading rate 23 pN/s): 13.40 nN | Feq: 11.69 nN

CCCc1ccc(O)c(OC)c1 [G]
interaction force between lignin / lignin model substance and cellulase: 0.97 nN | most likely dissociation force (loading rate 1 pN/s): 0.39 nN | most likely dissociation force (loading rate 3 pN/s): 0.87 nN | most likely dissociation force (loading rate 5.74 pN/s): 0.97 nN | most likely dissociation force (loading rate 7 pN/s): 1.06 nN | most likely dissociation force (loading rate 12 pN/s): 1.25 nN | Feq: 0.97 nN
